The text below walks through data of US20140378541A1, “Synthetic Epigallocatechin Gallate (EGCG) Analogs” (WAYNE STATE UNIVERSITY, priority 2011, published 2014).

In experiment [1] the test system is human multiple myeloma ARP cells. The experiment can be described thus: MTT assay in multiple myeloma ARP cells, alone or with Velcade. The experiment is classed as cell-based. The conditions noted are these: varying doses, 48 h. The protocol: The cells were treated with Velcade™ alone or with 20 μM of compounds 5, 7 and 23 or in combination with varying doses of Velcade™ for 48 hrs, followed by a MTT assay.
Human multiple myeloma cells (Arp and Opm1) cells, kindly provided by Dr. Ramesh Batchu (Wayne State University), were grown in RPMI-1640 medium supplemented with 10% FBS, 100 units/ml of penicillin, and 100 μg/ml of streptomycin. Cells were maintained at 37° C. in 5% CO2 (Mujtaba T, et al., Int J Mol Med. (2012) 29(1):102-6).
Cells were grown in a 96-well plate. Triplicate wells of cells were treated with indicated concentrations of EGCG or EGCG analogs for 24 h. After aspiration of medium, MTT (1 mg/ml) was then added to the cell cultures, followed by incubation for 3 h at 37° C. After cells were crystallized, MTT was removed and DMSO was added to dissolve the metabolized MTT product. The absorbance was then measured on a Wallac Victor3 1420 Multi-label counter at 540 nm.

Experiment [2] deals with human multiple myeloma OPM1 cells. The experiment can be described thus: MTT assay in multiple myeloma OPM1 cells, alone or with Velcade. The experiment is classed as cell-based. The conditions noted are these: 48 h. Background: Tetrazolium assays rely on reduction of a dye to a coloured formazan, in cell work by metabolically active cells.

Regarding `CC(C)C[C@H](NC(=O)[C@H](Cc1ccccc1)NC(=O)c1cnccn1)B(O)O` [Velcade™, bortezomib, reference compound], the “cell proliferation, Velcade alone” value in experiment [1] was “reduced cell proliferation in a dose-dependent manner”. Further, the “sensitivity of OPM1 cell line to treatment, versus ARP cells” value in experiment [2] is given as “more resistant”.
